Five molecules from patent US12171744B2, “Pharmaceutical combinations for the treatment of cancer” (Presage Biosciences, Inc., priority 2016, dated 2024) can be followed below.

The target of one data set is MAK (Homo sapiens, UniProt P20794). Put plainly: Kinase inhibition profile.
Another data set addresses ICK (Homo sapiens, UniProt Q9UPZ9). Put plainly: Kinase inhibition profile. In kind it is biochemical.
For another data set, the system named is tumor cells. In words: Solid tumor section, CDK inhibitors in combination with ixazomib. The arrangement: species or system mice. To be noted: mouse, in vivo. The method, then:
(§1) Mice were enrolled into CIVO drug studies when the tumor volume reached approximately 1000 mm^3. Microinjection studies were performed using the CIVO device as previously described (Klinghoffer et al, Science Translational Medicine 2015) The device was configured with 6 injection needles set for a 6 mm injection length and a total volume delivery of 3 μl. A fluorescent tracking marker (FTM) was added to each drug reservoir in vehicle for delivery along with each drug or drug combination. All micro-doses were equivalent to or lower than what would be allowed under FDA guidelines for Exploratory IND (Investigational New Drug) studies and by solubility of drug into vehicle. Total amounts of agents injected are tabulated below in Table 4.

Data set [1] deals with HCC1187 triple negative breast cancer (TNBC) xenograft model. Put plainly: CIVO microinjection, MCL-1 and CC3 staining. In kind it is in vivo, mice. To be noted: for CC3 expression: marker of apoptosis; for expression of MCL-1: drug screen. The method, then:
as §1
A drug screen was performed to test multiple drugs simultaneously.
FIG. 11 depicts a similar experiment performed on the HCC1187 triple negative breast cancer (TNBC) xenograft model. […] Cells were then stained for CC3 expression (shown in red) as a marker of apoptosis.
FIGS. 20A-20D depicts the HCC1187 triple negative breast cancer (TNBC) xenograft model. Briefly, cells were treated with vehicle, voruciclib alone, ixazomib alone, or voruciclib and ixazomib in combination. Cells were then stained for CC3 expression (shown in red) as a marker of apoptosis.

The test system of a further data set is NudHL1 DLBCL xenografts. In words: CIVO microinjection, CC3 staining after 6 hours. In kind it is in vivo, mice. To be noted: treated for 6 hours. The protocol: Mice were enrolled into CIVO drug studies when the tumor volume reached approximately 1000 mm^3. Microinjection studies were performed using the CIVO device as previously described (Klinghoffer et al, Science Translational Medicine 2015) The device was configured with 6 injection needles set for a 6 mm injection length and a total volume delivery of 3 μl. A fluorescent tracking marker (FTM) was added to each drug reservoir in vehicle for delivery along with each drug or drug combination. […] Total amounts of agents injected are tabulated below in Table 4.
FIGS. 9A-9D depict cells that were treated as above and stained for cleaved caspase-3 (CC3) as a marker of apoptosis (shown in red).
FIGS. 10A-10D depict cells that were treated as above and stained for cleaved caspase-3 (CC3) as a marker of apoptosis (shown in red).

The subject of another data set is tissue section. In words: Tissue section treated with bortezomib. In kind it is in vivo. The settings on record: some cells appear resistant.
Data set [2] is described as follows: Body weight in HCC1187 TNBC mouse model. The settings on record: in vivo.
Protocol: Mice were enrolled for study when tumors reached an average volume of 150-200 mm^3. Tumor volume was calculated as V=length×width×height, all three dimensions measured using digital calipers along with body weight. Animals were removed from the study when—any one of the three measured dimensions of the tumor exceeding 2 cm, volume exceeding 2500 mm^3, ulceration or body weight loss greater than 20%.
In data set [3] the test system is HCC1187 triple negative breast cancer cells. Put plainly: Western blot of treated cells. Format: cell-based. The settings on record: for XBP1 expression: at 24 hours. The protocol: Cell lines shown in Table 1, adherent or suspension, were treated in 6-well dishes or T10 flasks respectively, seeded at one million per ml density prior to treatment in total volumes of 3-10 ml. All agents used for in vitro cell treatments were formulated in water/DMSO to achieve required concentrations (as stated in respective figure labels/legends) with DMSO concentrations not exceeding 0.01%. Drug sources are indicated in table under ‘CIVO microinjection studies’. Cells were harvested at experimental time points: 2, 6, or 24 hours post treatment as indicated in respective figures, first by washing cells twice in ice-cold PBS in 15 ml falcon tubes, centrifugation at 1000 rpm for 5 mins followed by lysis of the respective cell pellets as described in section below. Note: Drug resistant NUDHL1 Dox 1000 nM and Toledo Dox 1000 nM cell lines were generated at Presage by culturing parental lines in media with stepwise increments in Doxorubicin concentration over several passages. These cells were used to generate xenografts when resistance to 1 uM Dox was achieved.
Protein lysates were prepared by adding ice-cold 1×RIPA Buffer (from 10×, Millipore) with 1×-3× Halt protease and phosphatase inhibitor cocktail (100×, Pierce) to cell pellets, followed by pulse sonication (˜3-5 secs) three times. Lysates were cleared by centrifugation at 14K rpm for 15-20 mins and the supernatant (lysate) was collected for further analysis. To prepare lysates from cryopreserved xenograft tumor tissue, tissue was first homogenized using a hand-held tissue homogenizer (Cole Palmer) in above lysis buffer followed by pulse sonication and centrifugation as described above. Above steps were carried out under ice cold conditions. […] 20-25 micrograms of protein from each sample were subject to SDS-PAGE using BOLT 4-12% Bis-Tris gels (Thermofisher) and transferred to either 0.45 or 0.2 micron pore size membranes (as applicable based on protein molecular size), and either nitrocellulose (NC) or pvdf (Thermofisher) using manufacturer's protocol, blocked for one hour in 5% milk at room temperature, probed with primary antibodies (Table 2) at 4 deg C. overnight and corresponding HRP-conjugated secondary antibodies (Jackson Immunoresearch, 1:10,000-1:20,000 dilutions) for 1 hour at room temperature. Three PBS/0.01% Tween-20 washes (5-10 mins each) were carried out after each antibody incubation. ECL chemiluminescent substrate (Pierce or GE) and autoradiographic film (Thermofisher) was used for detection of protein signals.
1 ug of mRNA from each condition was used to generate cDNA using the High Capacity cDNA Reverse Transcription Kit (Applied Biosystems) and manufacturer's protocol. 100 ng cDNA was used to conduct a PCR assay to amplify XBP1 u or splice forms (Thermofisher PCR Supermix)—94 deg C. for 2 mins, (94 deg C. for 15 secs, 55 deg C. for 30 secs, 72 deg C. for 1 min)×30 cycles, 72 deg C. for 7 mins, hold at 4 deg C.
For orientation: A western blot detects proteins with antibodies after separation by electrophoresis.

Sequence of MAK (P20794 whole entry): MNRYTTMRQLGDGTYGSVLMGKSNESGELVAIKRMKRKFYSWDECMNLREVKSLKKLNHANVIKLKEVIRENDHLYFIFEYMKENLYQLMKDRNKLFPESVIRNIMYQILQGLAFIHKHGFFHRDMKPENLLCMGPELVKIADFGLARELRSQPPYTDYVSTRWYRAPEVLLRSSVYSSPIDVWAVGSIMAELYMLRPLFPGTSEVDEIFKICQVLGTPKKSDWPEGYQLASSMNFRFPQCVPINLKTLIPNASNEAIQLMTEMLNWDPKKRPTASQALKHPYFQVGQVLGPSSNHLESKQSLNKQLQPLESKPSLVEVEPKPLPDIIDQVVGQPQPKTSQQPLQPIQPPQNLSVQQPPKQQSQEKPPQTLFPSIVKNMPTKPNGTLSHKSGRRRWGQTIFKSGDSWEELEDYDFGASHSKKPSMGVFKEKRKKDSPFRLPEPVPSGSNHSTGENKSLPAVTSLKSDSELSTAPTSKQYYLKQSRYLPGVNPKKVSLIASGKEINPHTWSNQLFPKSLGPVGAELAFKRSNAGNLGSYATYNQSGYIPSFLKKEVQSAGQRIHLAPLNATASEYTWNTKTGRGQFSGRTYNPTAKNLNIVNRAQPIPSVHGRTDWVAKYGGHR
Sequence of ICK (Q9UPZ9 whole entry): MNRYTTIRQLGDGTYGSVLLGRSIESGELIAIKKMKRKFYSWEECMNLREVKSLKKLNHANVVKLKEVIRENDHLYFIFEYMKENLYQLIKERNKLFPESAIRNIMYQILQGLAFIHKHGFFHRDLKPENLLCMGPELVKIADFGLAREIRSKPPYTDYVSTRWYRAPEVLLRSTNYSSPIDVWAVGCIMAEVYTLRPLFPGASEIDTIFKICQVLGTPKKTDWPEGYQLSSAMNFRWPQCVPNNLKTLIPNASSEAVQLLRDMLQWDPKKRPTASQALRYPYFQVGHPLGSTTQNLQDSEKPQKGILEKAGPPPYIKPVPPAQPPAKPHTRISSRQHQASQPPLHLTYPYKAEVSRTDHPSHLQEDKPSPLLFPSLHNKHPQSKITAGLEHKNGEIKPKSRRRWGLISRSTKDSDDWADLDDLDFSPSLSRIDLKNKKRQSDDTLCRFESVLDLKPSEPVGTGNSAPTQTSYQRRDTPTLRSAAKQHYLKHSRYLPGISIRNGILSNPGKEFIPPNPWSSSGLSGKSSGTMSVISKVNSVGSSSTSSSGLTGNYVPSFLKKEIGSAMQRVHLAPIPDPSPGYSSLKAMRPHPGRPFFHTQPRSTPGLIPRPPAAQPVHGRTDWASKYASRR

On to `CN1CC[C@H](c2c(O)cc(O)c3c(=O)cc(-c4ccccc4Cl)oc23)[C@H](O)C1` [flavopiradol, reference compound], for which the “inhibition of MAK” value at MAK is given as “potent inhibitor”. In addition, the “inhibition of ICK” value against ICK is listed as “potent inhibitor”.
With `CC(C)C[C@H](NC(=O)CNC(=O)c1cc(Cl)ccc1Cl)B(O)O` [ixazomib], the “synergistic effect on apoptosis of tumor cells” value in the data set on tumor cells is recorded as “did not exhibit the synergistic effect”. Besides, in data set [1], the CC3 expression result is “little to no increase”.
On to `CC(C)C[C@H](NC(=O)[C@H](Cc1ccccc1)NC(=O)c1cnccn1)B(O)O` [bortezomib], for which the CC3 expression result (in the data set on NudHL1 DLBCL xenografts; in data set [1]) was “little to no increase” in each case. Besides, the apoptosis result in the data set with tissue section is “induces apoptosis in some cells”. Further, the “body weight of mice” value in data set [2] is recorded as “unaffected”. In addition, in data set [3] (Western blot, compared to untreated sample), the MCL-1 protein expression result is “increased”. The XBP1 expression entry in data set [3] is given as “strongly induced”. In addition, the “expression of MCL-1” value in data set [1] is recorded as “increase”; in data set [1] (listed as Bortezomib) it was “markedly increased”.
For the molecule `C[C@@]12OC(=O)[C@]1([C@@H](O)[C@@H]1C=CCCC1)NC(=O)[C@@H]2CCCl` [marizomib], in the data set with NudHL1 DLBCL xenografts, the CC3 expression result is recorded as “little to no increase”.
As for tunicamycin [reference compound], the “X-box binding protein 1 (XBP1) expression” value in data set [3] (at 6 hours) is on record as “strongly induced”. Besides, the XBP1 expression result in data set [3] was “strongly induced”.
